Experimental data published in US10689383B2, “Optionally fused heterocyclyl-substituted derivatives of pyrimidine useful for the treatment of inflammatory, metabolic, oncologic and autoimmune diseases” (NUEVOLUTION A/S, priority 2014, dated 2020).
Where two headings read alike, the source gives them in different places.

Biological target: T1, human RORγt (Ligand Binding Domain) (Homo sapiens, UniProt P51449)
T1 construct: purchased Crelux (Planegg, Germany) batch no PC5032-1
T1 sequence (P51449 269-508 limits assumed): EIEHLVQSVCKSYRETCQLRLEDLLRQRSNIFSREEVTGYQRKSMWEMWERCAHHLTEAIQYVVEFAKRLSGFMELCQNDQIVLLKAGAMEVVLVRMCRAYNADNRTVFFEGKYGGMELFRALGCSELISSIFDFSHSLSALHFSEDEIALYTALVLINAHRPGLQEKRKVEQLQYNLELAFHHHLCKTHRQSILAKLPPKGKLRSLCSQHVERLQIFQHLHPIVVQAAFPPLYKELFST
Assay: Fluorescence Polarization (FP) Assay
Experimental: The activity of the compounds was evaluated using a Fluorescence Polarization (FP) Assay and, in most cases, a Th17 Assay and/or RORγ Reporter assay (also referred to as Gal4 assay). The FP assay is an in vitro assay monitoring binding within the ligand binding pocket. The RORγ and the Th17 assays are both cell-based assays monitoring functional activity of the compound assayed.
The total volume was 25 μl, in a black Perkin Elmer OptiPlate. As negative control, 1 μl DMSO was used. […] The probe is a fluorescently labeled (TAMRA) RORγt ligand identified by Nuevolution with a total molecular weight of 910 g/mole as shown in Graph A in FIG. 1.

[1] = Fluorescence Polarization (FP) Assay, values given as upper bounds of activity ranges, read-out: FP activity range

| Structure (SMILES) | IC50 [1] | IC50 |
| --- | --- | --- |
| Cc1ccc(CNc2ncnc(N3CCCC3c3ccc(C)o3)c2F)cn1 (stereo not drawn) [Example 150, 5-fluoro-6-[2-(5-methyl-2-furyl)pyrrolidin-1-yl]-N-[(6-methyl-3-pyridyl)methyl]pyrimidin-4-amine] | < 10 µM |  |
| Fc1c(NCC2CCCCO2)ncnc1N1CCC[C@@H]1c1ccc(C(F)(F)F)cc1 (stereo partly drawn) [Example 155, 5-fluoro-N-(tetrahydropyran-2-ylmethyl)-6-[(2R)-2-[4-(trifluoromethyl)phenyl]pyrrolidin-1-yl]pyrimidin-4-amine] | < 10 µM |  |
| Fc1c(NCC2CCCS2)ncnc1N1CCC[C@@H]1c1ccc(C(F)(F)F)cc1 (stereo partly drawn) [Example 159, 5-fluoro-N-(tetrahydrothiophen-2-ylmethyl)-6-[(2R)-2-[4-(trifluoromethyl)phenyl]pyrrolidin-1-yl]pyrimidin-4-amine] | < 2 µM |  |
| CC1(C)CCC(CNc2ncnc(N3CCC[C@@H]3c3ccc(C(F)(F)F)cc3)c2F)CC1 [Example 166, N-[(4,4-dimethylcyclohexyl)methyl]-5-fluoro-6-[(2R)-2-[4-(trifluoromethyl)phenyl]pyrrolidin-1-yl]pyrimidin-4-amine] | < 0.5 µM |  |
| O=S1(=O)CCCC1CNc1ncnc(N2CCC[C@@H]2c2ccc(C(F)(F)F)cc2)c1F (stereo partly drawn) [Example 170, N-[(1,1-dioxothiolan-2-yl)methyl]-5-fluoro-6-[(2R)-2-[4-(trifluoromethyl)phenyl]pyrrolidin-1-yl]pyrimidin-4-amine] | < 10 µM |  |
| CC(C)(C)C1OCCCC1CNc1ncnc(N2CCC[C@@H]2c2ccc(C(F)(F)F)cc2)c1F (stereo partly drawn) [Example 175, N-[(2-tert-butyltetrahydropyran-3-yl)methyl]-5-fluoro-6-[(2R)-2-[4-(trifluoromethyl)phenyl]pyrrolidin-1-yl]pyrimidin-4-amine] | < 10 µM |  |
| CC(C)C1CCC(CNc2ncnc(N3CCC[C@@H]3c3ccc(C(F)(F)F)cc3)c2F)CC1 (stereo partly drawn) [Example 178, 5-fluoro-N-[(4-isopropylcyclohexyl)methyl]-6-[(2R)-2-[4-(trifluoromethyl)phenyl]pyrrolidin-1-yl]pyrimidin-4-amine] | < 0.5 µM |  |
| Fc1c(NCC2CCCO2)ncnc1N1CCC[C@@H]1c1ccc(C(F)(F)F)cc1 (stereo partly drawn) [Example 181, 5-fluoro-N-(tetrahydrofuran-2-ylmethyl)-6-[(2R)-2-[4-(trifluoromethyl)phenyl]pyrrolidin-1-yl]pyrimidin-4-amine] | < 10 µM |  |
| O=S1(=O)CCC(CNc2ncnc(N3CCC[C@@H]3c3ccc(C(F)(F)F)cc3)c2F)C1 (stereo partly drawn) [Example 184, N-[(1,1-dioxothiolan-3-yl)methyl]-5-fluoro-6-[(2R)-2-[4-(trifluoromethyl)phenyl]pyrrolidin-1-yl]pyrimidin-4-amine] | < 0.5 µM |  |
| COC1CC(c2ccc(C(F)(F)F)cc2)N(c2ncnc(NCc3ccc(C)nc3)c2F)C1 (stereo not drawn) [Example 212, 5-fluoro-6-[4-methoxy-2-[4-(trifluoromethyl)phenyl]pyrrolidin-1-yl]-N-[(6-methyl-3-pyridyl)methyl]pyrimidin-4-amine] | < 10 µM |  |
| CCC(Nc1ncnc(N2CCCC2c2ccc(C(F)(F)F)cc2)c1F)c1noc(C)n1 (stereo not drawn) [Example 215, 5-fluoro-N-[1-(5-methyl-1,2,4-oxadiazo1-3-yl)propyl]-6-[2-[4-(trifluoromethyl)phenyl]pyrrolidin-1-yl]pyrimidin-4-amine] | < 10 µM |  |
| Oc1cc(CNc2ncnc(N3CCCC3c3ccc(C(F)(F)F)cc3)c2F)on1 (stereo not drawn) [Example 216, 5-[[[5-fluoro-6-[2-[4-(trifluoromethyl)phenyl]pyrrolidin-1-yl]pyrimidin-4-yl]amino]methyl]isoxazol-3-ol] |  | < 10 µM |
| Fc1c(NCC2CCCC2)ncnc1N1CCC[C@@H]1c1ccc(C(F)(F)F)cc1 [Example 218, N-(cyclopentylmethyl)-5-fluoro-6-[(2R)-2-[4-(trifluoromethyl)phenyl]pyrrolidin-1-yl]pyrimidin-4-amine] | < 10 µM |  |
| O=C(O)C[C@H]1CC[C@H](CNc2ncnc(N3CCOC[C@@H]3c3ccc(OC(F)(F)F)cc3)c2F)CC1 [Example 243, 2-[4-[[[5-fluoro-6-[(3S)-3-[4-(trifluoromethoxy)phenyl]morpholin-4-yl]pyrimidin-4-yl]amino]methyl]cyclohexyl]acetic acid] | < 0.5 µM |  |
| NC(=O)C1(CNc2ncnc(N3CCOC[C@@H]3c3ccc(C(F)(F)F)cc3)c2F)CCCC1 [Example 249, 1-[[[5-fluoro-6-[(3S)-3-[4-(trifluoromethyl)phenyl]morpholin-4-yl]pyrimidin-4-yl]amino]methyl] cyclopentanecarboxamide] | < 10 µM |  |
| CN(C)C(=O)C1(CNc2ncnc(N3CCOC[C@@H]3c3ccc(C(F)(F)F)cc3)c2F)CCCC1 [Example 250, 1-[[[5-fluoro-6-[(3S)-3-[4-(trifluoromethyl)phenyl]morpholin-4-yl]pyrimidin-4-yl]amino]methyl]-N,N-dimethyl-cyclopentanecarboxamide] | < 10 µM |  |
| CS(=O)(=O)NC1CCCC1CNc1ncnc(N2CCOC[C@@H]2c2ccc(C(F)(F)F)cc2)c1F (stereo partly drawn) [Example 251, N-[2-[[[5-fluoro-6-[(3S)-3-[4-(trifluoromethyl)phenyl]morpholin-4-yl]pyrimidin-4-yl]amino]methyl]cyclopentyl] methanesulfonamide] | < 10 µM |  |

Second part, led by results:

| IC50 [1] | Structure (SMILES) | IC50 |
| --- | --- | --- |
| < 10 µM | CNC(=O)c1cccc(CNc2ncnc(N3CCCC3c3ccc(C(F)(F)F)cc3)c2F)c1 (stereo not drawn) [Example 144, 3-[[[5-fluoro-6-[2-[4-(trifluoromethyl)phenyl]pyrrolidin-1-yl]pyrimidin-4-yl]amino]methyl]-N-methyl-benzamide] |  |
| < 10 µM | CN(C)C(=O)c1cccc(CNc2ncnc(N3CCCC3c3ccc(C(F)(F)F)cc3)c2F)c1 (stereo not drawn) [Example 145, 3-[[[5-fluoro-6-[2-[4-(trifluoromethyl)phenyl]pyrrolidin-1-yl]pyrimidin-4-yl]amino]methyl]-N,N-dimethyl-benzamide] |  |
| < 2 µM | Fc1c(NCc2cccc(Cn3cncn3)c2)ncnc1N1CCCC1c1ccc(C(F)(F)F)cc1 (stereo not drawn) [Example 146, 5-fluoro-N-[[3-(1,2,4-triazol-1-ylmethyl)phenyl]methyl]-6-[2-[4-(trifluoromethyl)phenyl]pyrrolidin-1-yl]pyrimidin-4-amine] |  |
| < 2 µM | COCc1cccc(CNc2ncnc(N3CCCC3c3ccc(C(F)(F)F)cc3)c2F)c1 (stereo not drawn) [Example 147, 5-fluoro-N-[[3-(methoxymethyl)phenyl]methyl]-6-[2-[4-(trifluoromethyl)phenyl]pyrrolidin-1-yl]pyrimidin-4-amine] |  |
| < 10 µM | Fc1c(NCC2CCC2)ncnc1N1CCCC1c1ccc(C(F)(F)F)cc1 (stereo not drawn) [Example 151, N-(cyclobutylmethyl)-5-fluoro-6-[2-[4-(trifluoromethyl)phenyl]pyrrolidin-1-yl]pyrimidin-4-amine] |  |
| < 0.5 µM | Fc1c(NCC2CCOC2)ncnc1N1CCC[C@@H]1c1ccc(C(F)(F)F)cc1 (stereo partly drawn) [Example 154, 5-fluoro-N-(tetrahydrofuran-3-ylmethyl)-6-[(2R)-2-[4-(trifluoromethyl)phenyl]pyrrolidin-1-yl]pyrimidin-4-amine] |  |
| < 10 µM | [O-][n+]1cccc(CNc2ncnc(N3CCC[C@@H]3c3ccc(C(F)(F)F)cc3)c2F)c1 [Example 193, 5-fluoro-N-[(1-oxidopyridin-1-ium-3-yl)methyl]-6-[(2R)-2[4-(trifluoromethyl)phenyl]pyrrolidin-1-yl]pyrimidin-4-amine] |  |
| < 2 µM | [O-][n+]1ccc(CNc2ncnc(N3CCC[C@@H]3c3ccc(C(F)(F)F)cc3)c2F)cc1 [Example 194, 5-fluoro-N-[(1-oxidopyridin-1-ium-4-yl)methyl]-6-[(2R)-2-[4-(trifluoromethyl)phenyl]pyrrolidin-1-yl]pyrimidin-4-amine] |  |
| < 10 µM | Cc1cnc(CNc2ncnc(N3CCCC3c3ccc(C(F)(F)F)cc3)c2F)o1 (stereo not drawn) [Example 213, 5-fluoro-N-[(5-methyloxazol-2-yl)methyl]-6-[2-[4-(trifluoromethyl)phenyl]pyrrolidin-1-yl]pyrimidin-4-amine] |  |
| < 10 µM | Oc1nnc(CNc2ncnc(N3CCCC3c3ccc(C(F)(F)F)cc3)c2F)o1 (stereo not drawn) [Example 214, 5-(((5-fluoro-6-(2-(4-(trifluoromethyl)phenyl)pyrrolidin-1-yl)pyrimidin-4-yl)amino)methyl)-1,3,4-oxadiazol-2-ol] |  |
| < 10 µM | OCc1cccc(CNc2ncnc(N3CCC[C@@H]3c3ccc(C(F)(F)F)cc3)c2F)c1 [Example 217, [3-[[[5-fluoro-6-[(2R)-2-[4-(trifluoromethyl)phenyl]pyrrolidin-1-yl]pyrimidin-4-yl]amino]methyl]phenyl]methanol] |  |
| < 10 µM | CS(=O)(=O)c1ccc(CNc2ncnc(N3CCC[C@@H]3c3ccc(C(F)(F)F)cc3)c2F)cc1 [Example 219, 5-fluoro-N-[(4-methylsulfonylphenyl)methyl]-6-[(2R)-2-[4-(trifluoromethyl)phenyl]pyrrolidin-1-yl]pyrimidin-4-amine] |  |
| < 2 µM | CNC(=O)Cc1ccc(CNc2ncnc(N3CCOC[C@@H]3c3ccc(C(F)(F)F)cc3)c2F)cc1 [Example 244, 2-[4-[[[5-fluoro-6-[(3S)-3-[4-(trifluoromethyl)phenyl]morpholin-4-yl]pyrimidin-4-yl]amino]methyl]phenyl]-N-methyl-acetamide] |  |
